Source: patent publication US4226856A, “Preparation and use of bouvardin and deoxybouvardin” (University Patents, Inc., priority 1978, dated 1980)

Legend:
[1] = test system: Lymphocytic Leukemia P388; assay: "PS" test, Lymphocytic Leukemia P388 Protocol 1.200; type: in vivo; details: mice; for RANGE OF % T/C: "PS" test
Experimental: The in vivo "PS" tests were carried out on mice according to "Lymphocytic Leukemia P388--Protocol 1.200", published in Cancer Chemotherapy Reports, Part 3, Vol. 3, No. 2, page 9, (September 1972) with results reported in terms of percent survivals of test versus control animals (%T/C).
(§1) As one example, the "PS" and "Bl" tests noted above involved subcutaneous administration of the test compounds in simple water solution forms. It is expected that water solutions of bouvardin and deoxybouvardin would ordinarily be stabilized by addition of antioxidant substances.

[2] = test system: Melanotic Melanoma B 16; assay: "Bl" test, Melanotic Melanoma B 16 Protocol 1.300; type: in vivo; details: mice, subcutaneous, water solution
Experimental: The in vivo "Bl" were carried out on mice according to "Melanotic Melanoma B 16--Protocol 1.300" (id., p. 11) with reporting and evaluation procedures identical to those of the "PS" test.
as §1

[3] = test system: cells of human adenocarcinoma of the nasopharynx (KB); assay: "KB" test, Cell Culture Screen KB Protocol 1.600; type: cell-based; details: 3 days after drug addition, average
Experimental: The in vitro "KB" tests were carried out according to "Cell Culture Screen KB--Protocol 1.600" (id., p. 17) using cells of human adenocarcinoma of the nasopharynx. Test results are expressed as the dose that inhibits cell growth to 50% of control growth by 3 days after drug addition.

[4] = Solubility in water; type: physicochemical
From the text: as §1

Row | Compound | "PS" test activity, % T/C ([1]; 0.04 to 2.0 mg/kg doses, subcutaneous, water solution) | "Bl" test activity, % T/C ([2]; 0.25 to 8.0 mg/kg doses) | "KB" test ED 50 (dose that inhibits cell growth to 50% of control growth) [3] | Solubility in water [4] | RANGE OF % T/C ([1]; DOSE 0.04) | RANGE OF % T/C ([1]; DOSE 0.07) | RANGE OF % T/C ([1]; DOSE 0.11) | RANGE OF % T/C ([1]; DOSE 0.16) | RANGE OF % T/C ([1]; DOSE 0.25) | RANGE OF % T/C ([1]; DOSE 0.50) | RANGE OF % T/C ([1]; DOSE 1.00) | RANGE OF % T/C ([1]; DOSE 2.00) | "PS" test activity, % T/C (survival of test versus control animals) ([1]; dose levels 0.02 to 2.0 mg/kg, subcutaneous, water solution) | "Bl" test activity, % T/C ([2]; doses 0.12 to 2.0 mg/kg)
1 | COc1ccc(C[C@H]2C(=O)N[C@@H](C)C(=O)N(C)[C@H]3Cc4ccc(cc4)Oc4cc(ccc4O)C[C@@H](C(=O)N[C@H](C)C(=O)N[C@@H](C)C(=O)N2C)N(C)C3=O)cc1 [deoxybouvardin] | 142-216 % T/C | 133-175 % T/C | 1.9e-08 ng/mL | partially soluble in water |  |  |  |  |  |  |  |  |  | 
2 | COc1ccc(C[C@H]2C(=O)N[C@@H](C)C(=O)N(C)[C@@H]3C(=O)N(C)[C@@H](Cc4ccc(O)c(c4)Oc4ccc(cc4)[C@@H]3O)C(=O)N[C@H](C)C(=O)N[C@@H](C)C(=O)N2C)cc1 [bouvardin] |  |  | about 4.3×10^-7 μg/L | partially soluble in water | 134 % T/C | 139 % T/C | 150 to 164 % T/C | 158 % T/C | 161 to 188 % T/C | 135 to 186 % T/C | 148 to 217 % T/C | 167 to 205 % T/C | 135 to 217 % T/C | 134-152 % T/C
